≈ marks a conversion by molar mass, not a printed value. Where “and” joins values, the source holds several entries; their conditions need not be identical. Equal values may be shown once.
Experiments:
[1] = Stability of P11 in human GI microsomes; type: in vitro ADME; conditions: Figure 3A
[2] = Aqueous solubility assay in PBS buffer (pH 7.4); type: physicochemical
Experimental: The aqueous solubility was determined as previously reported with minor modifications.[48] Briefly, an excess amount of P11 or DRP-104 was added to PBS buffer (pH 7.4) and sonicated for 1 h at 37 °C to ensure saturation. After 1 h, the solution was filtered (0.45 μm PTFE), and the filtrate was diluted appropriately, and the concentration of each analyte was determined via LC–MS. Chemical stabilities of DRP-104 and P11 were done as previously described[18] with modifications. For chemical stability, prodrugs were spiked (10 μM) in buffer at pH 7.4 and incubated at 37 °C for 24 h. Prodrug disappearance was monitored using the developed HRMS methods.

[3] = test system: glutamine and FGAR in EL4 tumors; assay: Tumor target engagement: glutamine and FGAR quantification; type: in vivo, C57BL/6/CES1–/– mice; conditions: P11 2.9 mg/kg SC
Experimental: Glutamine and FGAR were extracted from the tumor by protein precipitation. Per milligram of tissue, 5 μL of methanol containing 10 μmol/L deuterated N-acetyl aspartic acid and deuterated glutamate (internal standards) was added. Tissue samples were homogenized as described above and centrifuged (16000g, 5 min). Standard concentration curves of glutamine and FGAR in untreated plasma and tumor tissues were prepared (separately). For FGAR quantification, supernatants (2 μL) were injected and separated on an UltiMate 3000 UHPLC coupled to a Q Exactive Focus Orbitrap mass spectrometer. Samples were separated on an Agilent Eclipse Plus C18 RRHD (1.8 μm) 2.1 × 100 mm column. The mobile phase consisted of 8 mmol/L dimethylhexylamine (DMHA) + 0.005% formic acid in water, pH 9 (A), and 8 mmol/L DMHA in acetonitrile (B). […] Quantification was performed in full MS negative mode. Data were acquired and quantified with Xcalibur software.
Glutamine analysis took place on an Agilent 1290 UPLC coupled to an Agilent 6520 quadrupole time-of-flight mass spectrometer. Samples (2 μL) were injected and separated on a Waters Acquity UPLC BEH Amide 1.7 μm 2.1 × 100 mm HILIC column with a flow rate of 0.3 mL/min. The mobile phases consisted of A (water +0.1% formic acid) and B (acetonitrile + 0.1% formic acid). The mass spectrometer was run in positive ion mode. Standard curves for FGAR and glutamine were fitted using a blank subtraction method[47] to compensate for the presence of endogenous analyte levels in naïve matrixes.

[4] = Stability of P11 in human plasma; type: in vitro ADME; conditions: Figure 3A
Experimental: (§1) Briefly, intestinal tissue was homogenized over ice via probe sonication with 1:9 tissue to potassium phosphate buffer (0.1 M) conditions. Prodrugs were spiked in plasma or tissue homogenate at 10 μM final concentration with 0.2% DMSO v/v and incubated in triplicate for 0 and 60 min time points. At each time point, 100 μL of the sample was precipitated with 300 μL of methanol containing internal standard (IS; losartan, 0.5 μM). Precipitated samples were vortexed (30 s) and centrifuged at 10000g for 10 min at 4 °C. After centrifugation, 100 μL of supernatant was aliquoted and submitted for analysis. Prodrug disappearance over time was monitored by liquid chromatography–mass spectrometry (LC–MS) through peak area ratios between the analyte and internal standard.

[5] = Metabolic stability in mouse plasma
Experimental: as §1
(§2) Chromatographic analysis was performed on a Dionex ultra-high-performance LC system coupled with a Q Exactive Focus Orbitrap mass spectrometer (Thermo Fisher Scientific Inc., Waltham, MA). Separation was achieved using an Agilent Eclipse Plus column (100 × 2.1 mm i.d.; maintained at 35 °C) packed with a 1.8 μm C18 stationary phase. The mobile phase used was composed of 0.1% formic acid in acetonitrile and 0.1% formic acid in water with gradient elution, starting with 2.5% organic phase (from 0 to 0.25 min) and linearly increasing to 99% (from 0.25 to 1.25 min) and re-equilibrating to 2.5% by 4 min. The total run time for each analyte was 5 min. Pumps were operated at a flow rate of 0.4 mL/min. The mass spectrometer controlled by Xcalibur software 4.0.27.13 (Thermo Scientific) was operated with an HESI ion source in positive ionization mode for all compounds. Compounds were identified in the full-scan mode with m/z ranging from 75 to 1125.

[6] = Metabolic stability in mouse intestinal homogenate (GIh)
Experimental: as §1, §2

[7] = test system: P493B lymphoma cells suspended in human plasma; assay: Human tumor cell to plasma partitioning assay; type: cell-based; conditions: 20 μM; 1 h; human plasma fraction
Experimental: Human tumor cell to plasma partitioning assays were conducted as we have previously described.[25] Briefly, P493B lymphoma cells were grown at 37 °C, in a humidified atmosphere with 5% CO2. Cell confluency was estimated, and cells were harvested after achieving >80% confluency and centrifuged at 200g for 5 min at 25 °C. The obtained cell pellet was resuspended in 20 mL of Dulbecco’s phosphate-buffered saline (DPBS; Gibco, USA, cat. no. 14-190-144) maintained at 37 °C, and cell count was determined using an automated cell counter (Bio-Rad, USA). Cell suspension in DPBS was further centrifuged at 200g for 5 min at 25 °C, and the cell pellet was resuspended in human plasma (Innovative Research, USA) for partitioning assessment. The final cell density after resuspending in plasma was 10 million cells/mL of plasma. Partitioning assessment was performed in triplicate. Preincubated (37 °C for 5 min) cell–plasma suspension was spiked with DRP-104 or P11 at a final concentration of 20 μM and incubated at 37 °C for 1 h. Following incubation, a 1 mL aliquot of cell–plasma suspension was centrifuged at 1000g for 5 min at 4 °C, and supernatant plasma as well as the cell pellet was collected and stored at −80 °C until bioanalysis. Both plasma and cell pellet fractions were analyzed for intact prodrug and DON levels. […]

[8] = supplementary CSV, unit not given, matches Table 1 % remaining at 1 h, in %

stability in human GI microsomes [1]: confirmed
solubility at 1 h ([2]; PBS buffer pH 7.4, 37 °C, 1 h): 8100 ± 1100 µg/mL (≈ 17.6 mM)
fold solubility improvement compared to DRP-104 ([2]; buffer pH 7.4): 33 and > 30
stability in human plasma [4]: confirmed
remaining at 1 h, 10 µM ([5]; CES1–/–, mouse, plasma): 93 ± 1%
Plasma [5, 8]: 93 ± 1
remaining at 1 h, 10 µM ([6]; CES1–/–, mouse, intestinal homogenate): 78 ± 2%
Intestinal homogenate [6, 8]: 78 ± 2
SMILES: CN(C)CC(=O)N[C@@H](Cc1ccccc1)C(=O)N[C@@H](CCC(=O)C=[N+]=[N-])C(=O)OC(C)(C)C [Prodrug P11, tert-Butyl (S)-6-Diazo-2-((S)-2-(2-(dimethylamino)acetamido)-3-phenylpropanamido)-5-oxohexanoate]
fold increase in tumor FGAR compared with vehicle ([3]; 30 min): 150
fold rise in tumor glutamine compared with vehicle ([3]; 30 min): ~2
tumor FGAR level ([3]; 30 min post dose (Tmax)): 1040 ± 179 nmol/g
tumor glutamine level ([3]; 30 min post dose (Tmax)): 1710 ± 173 nmol/g
stability and DON release in human plasma [7]: stable in human plasma with no DON release
